Source: patent publication US11459315B2, “Modulators of methyl modifying enzymes, compositions and uses thereof” (Constellation Pharmaceuticals, Inc., priority 2017, dated 2022)
Like-named read-outs stand apart in the source and are kept apart here.

How the values were obtained:
PRC2 containing wt EZH2 = PRC2 containing wt EZH2 (Homo sapiens (Human), UniProt Q15910); assay: EZH2 biochemical assay (IC50), 3H-SAM incorporation into biotinylated H3 peptide
Outline: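 The PRC2 pentamer with wt EZH2 (30 pM) was pre-incubated for 3-5 h with 450 nM SAM plus 450 nM ³H-SAM, 2 µM H3K27me3 activating peptide and compound (0.8% DMSO) in Tris at pH 8.5. Biotinylated H3K27me1 peptide was added and the reaction ran 18-22 h at RT. Incorporated ³H was captured on streptavidin plates, and IC50 was taken from a four-parameter fit.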

[1] = tested on: H3K27me3 mark in HeLa cells (EZH2); assay: H3K27me3 Alpha Hela Assay (AlphaLISA); assay type: cell-based; conditions: HeLa cells, 72 hrs, read-out: EZH2 Cell H3K27me3 Alpha HeLa (EC50 K27me3)
Outline: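 HeLa cells (1,000/well) treated with ten 3-fold compound doses for 72 h at 37 °C; lysates extracted and H3K27me3 detected by AlphaLISA with anti-K27me3 acceptor beads, biotinylated anti-H3 (3 nM) and streptavidin donor beads. EC50 from DMSO-normalized dose-response curves; duplicate plate assessed viability.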

[2] = 30 pM PRC2 containing wt EZH2; 3-5 h pre-incubation; read-out: EZH2 (IC50)
[3] = EZH2 (IC50), 30 pM PRC2 containing wt EZH2; 3-5 h pre-incubation
[4] = read-out: EZH2 (IC50); 30 pM PRC2 containing wt EZH2; 3-5 h pre-incubation

Sequence of PRC2 containing wt EZH2 (Q15910 whole entry): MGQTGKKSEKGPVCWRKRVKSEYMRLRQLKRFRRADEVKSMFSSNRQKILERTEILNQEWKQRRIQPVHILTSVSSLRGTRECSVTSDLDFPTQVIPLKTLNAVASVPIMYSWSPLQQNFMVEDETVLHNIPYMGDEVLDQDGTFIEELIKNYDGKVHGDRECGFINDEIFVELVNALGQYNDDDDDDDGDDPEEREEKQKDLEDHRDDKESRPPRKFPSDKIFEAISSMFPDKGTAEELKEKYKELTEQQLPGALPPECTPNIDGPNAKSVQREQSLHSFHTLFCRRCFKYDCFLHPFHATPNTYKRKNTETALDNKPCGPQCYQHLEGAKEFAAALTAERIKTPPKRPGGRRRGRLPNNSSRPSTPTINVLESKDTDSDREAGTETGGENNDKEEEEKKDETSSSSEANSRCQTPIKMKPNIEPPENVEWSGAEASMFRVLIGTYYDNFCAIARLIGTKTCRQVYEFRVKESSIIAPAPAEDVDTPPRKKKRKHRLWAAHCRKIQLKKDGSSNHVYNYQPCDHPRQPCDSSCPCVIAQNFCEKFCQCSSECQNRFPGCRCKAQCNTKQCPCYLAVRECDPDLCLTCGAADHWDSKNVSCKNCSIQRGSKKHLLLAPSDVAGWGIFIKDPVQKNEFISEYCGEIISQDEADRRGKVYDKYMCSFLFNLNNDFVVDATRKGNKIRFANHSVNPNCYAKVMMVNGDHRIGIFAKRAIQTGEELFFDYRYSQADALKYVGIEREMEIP
Sequence of PRC2 containing wt EZH2 (O75530 whole entry partner): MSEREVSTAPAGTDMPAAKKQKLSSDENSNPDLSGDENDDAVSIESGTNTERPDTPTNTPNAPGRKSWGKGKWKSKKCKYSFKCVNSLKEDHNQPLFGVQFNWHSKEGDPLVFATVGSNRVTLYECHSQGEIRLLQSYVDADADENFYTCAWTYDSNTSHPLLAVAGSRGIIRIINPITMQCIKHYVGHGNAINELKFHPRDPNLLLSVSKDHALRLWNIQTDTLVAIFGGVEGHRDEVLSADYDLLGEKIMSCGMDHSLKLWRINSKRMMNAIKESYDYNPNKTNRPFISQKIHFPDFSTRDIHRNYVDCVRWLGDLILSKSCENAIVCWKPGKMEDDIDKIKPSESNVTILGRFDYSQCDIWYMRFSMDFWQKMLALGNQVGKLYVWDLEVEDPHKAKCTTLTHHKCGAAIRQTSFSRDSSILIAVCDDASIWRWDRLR
Sequence of PRC2 containing wt EZH2 (Q15022 whole entry partner): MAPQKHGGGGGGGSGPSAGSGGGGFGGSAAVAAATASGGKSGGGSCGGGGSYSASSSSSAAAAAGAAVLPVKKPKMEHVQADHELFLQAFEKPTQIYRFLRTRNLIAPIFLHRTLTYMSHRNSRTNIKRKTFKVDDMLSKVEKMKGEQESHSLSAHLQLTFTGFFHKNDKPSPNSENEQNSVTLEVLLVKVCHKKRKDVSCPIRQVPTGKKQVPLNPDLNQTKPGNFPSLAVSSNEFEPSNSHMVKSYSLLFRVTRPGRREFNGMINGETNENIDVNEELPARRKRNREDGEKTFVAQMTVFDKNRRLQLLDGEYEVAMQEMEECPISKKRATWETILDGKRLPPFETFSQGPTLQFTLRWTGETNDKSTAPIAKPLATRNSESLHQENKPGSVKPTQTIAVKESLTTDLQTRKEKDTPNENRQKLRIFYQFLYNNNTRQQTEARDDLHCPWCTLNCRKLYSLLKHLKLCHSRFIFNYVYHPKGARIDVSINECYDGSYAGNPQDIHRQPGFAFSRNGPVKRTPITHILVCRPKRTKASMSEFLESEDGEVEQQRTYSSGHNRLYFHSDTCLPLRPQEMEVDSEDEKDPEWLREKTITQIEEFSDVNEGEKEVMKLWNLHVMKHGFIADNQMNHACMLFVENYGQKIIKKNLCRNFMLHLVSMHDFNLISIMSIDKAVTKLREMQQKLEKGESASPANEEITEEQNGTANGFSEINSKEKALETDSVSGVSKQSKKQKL
Sequence of PRC2 containing wt EZH2 (Q09028 whole entry partner): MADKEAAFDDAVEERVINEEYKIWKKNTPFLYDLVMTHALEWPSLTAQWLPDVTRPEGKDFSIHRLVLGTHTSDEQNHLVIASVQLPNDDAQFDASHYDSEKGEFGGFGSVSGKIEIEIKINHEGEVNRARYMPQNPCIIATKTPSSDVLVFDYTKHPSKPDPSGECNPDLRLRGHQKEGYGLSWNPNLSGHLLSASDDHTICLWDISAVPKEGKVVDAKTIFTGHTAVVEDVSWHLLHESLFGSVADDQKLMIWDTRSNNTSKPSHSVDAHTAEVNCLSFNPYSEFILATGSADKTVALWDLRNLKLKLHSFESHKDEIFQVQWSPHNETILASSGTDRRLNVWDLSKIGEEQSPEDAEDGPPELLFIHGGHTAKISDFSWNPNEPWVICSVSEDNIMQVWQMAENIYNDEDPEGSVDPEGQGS
Sequence of PRC2 containing wt EZH2 (Q6ZN18 whole entry partner): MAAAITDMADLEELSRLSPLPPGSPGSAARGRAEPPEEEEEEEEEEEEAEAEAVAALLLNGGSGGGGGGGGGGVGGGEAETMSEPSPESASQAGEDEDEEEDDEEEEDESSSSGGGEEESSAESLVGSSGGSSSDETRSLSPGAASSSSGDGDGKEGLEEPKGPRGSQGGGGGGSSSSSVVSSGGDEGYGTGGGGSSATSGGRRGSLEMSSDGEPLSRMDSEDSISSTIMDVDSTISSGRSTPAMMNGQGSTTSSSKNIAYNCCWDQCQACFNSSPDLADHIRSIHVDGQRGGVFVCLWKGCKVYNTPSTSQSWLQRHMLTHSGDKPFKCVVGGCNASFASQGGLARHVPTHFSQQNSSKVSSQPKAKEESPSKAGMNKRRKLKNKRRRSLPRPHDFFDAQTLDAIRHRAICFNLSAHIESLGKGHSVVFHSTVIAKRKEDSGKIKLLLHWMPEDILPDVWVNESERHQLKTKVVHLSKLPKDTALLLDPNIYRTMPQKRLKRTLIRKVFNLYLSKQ

Compound | IC50 (PRC2 containing wt EZH2; [2]) | EC50 ([1]; Homo sapiens, HeLa, 72 h) | EC50 [1] | IC50 (PRC2 containing wt EZH2; [3]) | IC50 (PRC2 containing wt EZH2; [4])
CSc1cc(C)[nH]c(=O)c1CNC(=O)c1c(C)n([C@H](C)C2CCC(N3CC(n4ccnn4)C3)CC2)c2ccccc12 (stereo partly drawn) [Example 160, 1-((R)-1-(4-(3-(1H-1,2,3-triazol-1-yl)azetidin-1-yl)cyclohexyl)ethyl)-2-methyl-N-((6-methyl-4-(methylthio)-2-oxo-1,2-dihydropyridin-3-yl)methyl)-1H-indole-3-carboxamide] | < 0.5 nM | < 10 nM |  |  | 
CSc1cc(C)[nH]c(=O)c1CNC(=O)c1c(C)n([C@H](C)C2CCC(N(C)C)CC2)c2ncccc12 (single isomer, unassigned) [51 (isomer 2)] | < 0.5 nM |  | > 100 nM |  | 
CSc1cc(C)[nH]c(=O)c1CNC(=O)c1c(C)n([C@@H](C)C2CN(CC(F)(F)F)C2)c2ccccc12 [Example 55, (S)-2-methyl-N-((6-methyl-4-(methylthio)-2-oxo-1,2-dihydropyridin-3-yl)methyl)-1-(1-(1-(2,2,2-trifluoroethyl)azetidin-3-yl)ethyl)-1H-indole-3-carboxamide] |  | 10 to 100 nM |  | 0.5 to 5 nM | 
CSc1cc(C)[nH]c(=O)c1CNC(=O)c1c(C)n([C@H](C)C2CCC(O)CC2)c2ccccc12 (single isomer, unassigned) [19 (isomer 2)] |  |  | < 10 nM |  | < 0.5 nM
CSc1cc(C)[nH]c(=O)c1CNC(=O)c1c(C)n([C@H](C)[C@H]2CC[C@H](NC3(C)COC3)CC2)c2ccccc12 (single isomer, unassigned) [1 (isomer 1)] | < 0.5 nM | < 10 nM |  |  | 
CSc1cc(C)[nH]c(=O)c1CNC(=O)c1c(C)n([C@H](C)C2CCN(C3CC3)CC2)c2ccccc12 [Example 48, (R)-1-(1-(1-cyclopropylpiperidin-4-yl)ethyl)-2-methyl-N-((6-methyl-4-(methylthio)-2-oxo-1,2-dihydropyridin-3-yl)methyl)-1H-indole-3-carboxamide] |  | < 10 nM |  | < 0.5 nM | 
CSc1cc(C)[nH]c(=O)c1CNC(=O)c1c(C)n([C@H](C)C23CC(NC4COC4)(C2)C3)c2ccccc12 [Example 8, (R)-2-methyl-N-((6-methyl-4-(methylthio)-2-oxo-1,2-dihydropyridin-3-yl)methyl)-1-(1-(3-(oxetan-3-ylamino)bicyclo[1.1.1]pentan-1-yl)ethyl)-1H-indole-3-carboxamide] | < 0.5 nM | < 10 nM |  |  | 
COc1cnc2c(c1)c(C(=O)NCc1c(SC)cc(C)[nH]c1=O)c(C)n2[C@H](C)C1CCC(N2CC(OC(F)F)C2)CC1 (single isomer, unassigned) [125 (isomer 1)] | < 0.5 nM | < 10 nM |  |  | 
CSc1cc(C)[nH]c(=O)c1CNC(=O)c1c(C)n([C@H](C)C2CCC(NC3COC3)CC2)c2ccccc12 (single isomer, unassigned) [2 (isomer 1)] | < 0.5 nM | < 10 nM |  |  | 
CSc1cc(C)[nH]c(=O)c1CNC(=O)c1c(C)n([C@H](C)C2CCC(N3CCCC3=O)CC2)c2ccccc12 (stereo partly drawn) [Example 72, 2-methyl-N-((6-methyl-4-(methylthio)-2-oxo-1,2-dihydropyridin-3-yl)methyl)-1-((R)-1-(4-(2-oxopyrrolidin-1-yl)cyclohexyl)ethyl)-1H-indole-3-carboxamide] | < 0.5 nM | 10 to 100 nM |  |  | 
CSc1cc(C)[nH]c(=O)c1CNC(=O)c1c(C)n([C@H](C)C2CCC(N3CC(OC(F)F)C3)CC2)c2ncc(C)cc12 (stereo partly drawn) [Example 115, 1-((R)-1-(4-(3-(difluoromethoxy)azetidin-1-yl)cyclohexyl)ethyl)-2,5-dimethyl-N-((6-methyl-4-(methylthio)-2-oxo-1,2-dihydropyridin-3-yl)methyl)-1H-pyrrolo[2,3-b]pyridine-3-carboxamide] | < 0.5 nM | < 10 nM |  |  | 
CSc1cc(C)[nH]c(=O)c1CNC(=O)c1c(C)n([C@@H](C)c2ccc(N(C)C)cc2)c2ccccc12 [Example 47, (S)-1-(1-(4-(dimethylamino)phenyl)ethyl)-2-methyl-N-((6-methyl-4-(methylthio)-2-oxo-1,2-dihydropyridin-3-yl)methyl)-1H-indole-3-carboxamide] |  | > 100 nM |  | 0.5 to 5 nM | 
CSc1cc(C)[nH]c(=O)c1CNC(=O)c1c(C)n([C@H](C)C2CCC(O)CC2)c2ncc(Cl)cc12 (single isomer, unassigned) [53 (isomer 2)] |  |  | < 10 nM |  | < 0.5 nM
CSc1cc(C)[nH]c(=O)c1CNC(=O)c1c(C)n([C@H](C)C2CCC(N(C)C3(C)COC3)CC2)c2ccccc12 (single isomer, unassigned) [3 (isomer 1)] | < 0.5 nM | < 10 nM |  |  | 
CSc1cc(C)[nH]c(=O)c1CNC(=O)c1c(C)n([C@H](C)C2CCC(N3CC(OC(F)(F)F)C3)CC2)c2ncncc12 (single isomer, unassigned) [123 (isomer 1)] | < 0.5 nM | < 10 nM |  |  | 
COC1CN(C2CCC([C@@H](C)n3c(C)c(C(=O)NCc4c(SC)cc(C)[nH]c4=O)c4ccccc43)CC2)C1 (single isomer, unassigned) [4 (isomer 1)] |  | < 10 nM |  | < 0.5 nM | 
CSc1cc(C)[nH]c(=O)c1CNC(=O)c1c(C)n([C@H](C)C2CCC(N3CC(F)C3)CC2)c2ncc(Cl)cc12 (stereo partly drawn) [Example 98, 5-chloro-1-((R)-1-(4-(3-fluoroazetidin-1-yl)cyclohexyl)ethyl)-2-methyl-N-((6-methyl-4-(methylthio)-2-oxo-1,2-dihydropyridin-3-yl)methyl)-1H-pyrrolo[2,3-b]pyridine-3-carboxamide] |  | < 10 nM |  | < 0.5 nM | 
CSc1cc(C)[nH]c(=O)c1CNC(=O)c1c(C)n([C@H](C)C2CCC(N3CC(N(C)C)C3)CC2)c2ccccc12 (single isomer, unassigned) [148 (isomer 1)] | < 0.5 nM | 10 to 100 nM |  |  | 
CCS(=O)(=O)N1CCC([C@@H](C)n2c(C)c(C(=O)NCc3c(SC)cc(C)[nH]c3=O)c3ccccc32)CC1 [Example 146, (R)-1-(1-(1-(ethylsulfonyl)piperidin-4-yl)ethyl)-2-methyl-N-((6-methyl-4-(methylthio)-2-oxo-1,2-dihydropyridin-3-yl)methyl)-1H-indole-3-carboxamide] | < 0.5 nM | < 10 nM |  |  | 
CSc1cc(C)[nH]c(=O)c1CNC(=O)c1c(C)n([C@H](C)C2CCC(N3CC(F)C3)CC2)c2ncncc12 (stereo partly drawn) [Example 68, 7-((R)-1-(4-(3-fluoroazetidin-1-yl)cyclohexyl)ethyl)-6-methyl-N-((6-methyl-4-(methylthio)-2-oxo-1,2-dihydropyridin-3-yl)methyl)-7H-pyrrolo[2,3-d]pyrimidine-5-carboxamide] |  | < 10 nM |  | < 0.5 nM | 
CSc1cc(C)[nH]c(=O)c1CNC(=O)c1c(C)n([C@H](C)C2CCC(NC3(C(F)(F)F)CC3)CC2)c2ncccc12 (stereo partly drawn) [Example 161, 2-methyl-N-((6-methyl-4-(methylthio)-2-oxo-1,2-dihydropyridin-3-yl)methyl)-1-((R)-1-(4-((1-(trifluoromethyl)cyclopropyl)amino)cyclohexyl)ethyl)-1H-pyrrolo[2,3-b]pyridine-3-carboxamide] | < 0.5 nM | 10 to 100 nM |  |  | 
CSc1cc(C)[nH]c(=O)c1CNC(=O)c1c(C)n([C@H](C)C2CCC(N3CC(OC(F)(F)F)C3)CC2)c2ccccc12 (single isomer, unassigned) [21 (isomer 1)] | < 0.5 nM | < 10 nM |  |  | 
CSc1cc(C)[nH]c(=O)c1CNC(=O)c1c(C)n([C@H](C)C2CCC(N3CC(OC(F)(F)F)C3)CC2)c2ncncc12 (single isomer, unassigned) [123 (isomer 2)] | < 0.5 nM |  | < 10 nM |  | 
COC1CC(N2CCC([C@@H](C)n3c(C)c(C(=O)NCc4c(SC)cc(C)[nH]c4=O)c4ccccc43)CC2)C1 (stereo partly drawn) [Example 140, (R)-1-(1-(1-(3-methoxycyclobutyl)piperidin-4-yl)ethyl)-2-methyl-N-((6-methyl-4-(methylthio)-2-oxo-1,2-dihydropyridin-3-yl)methyl)-1H-indole-3-carboxamide] |  | 10 to 100 nM |  | < 0.5 nM | 
CSc1cc(C)[nH]c(=O)c1CNC(=O)c1c(C)n([C@H](C)C2CCN(CC(C)(C)O)CC2)c2ccccc12 [Example 11, (R)-1-(1-(1-(2-hydroxy-2-methylpropyl)piperidin-4-yl)ethyl)-2-methyl-N-((6-methyl-4-(methylthio)-2-oxo-1,2-dihydropyridin-3-yl)methyl)-1H-indole-3-carboxamide] |  | 10 to 100 nM |  | < 0.5 nM | 
CSc1cc(C)[nH]c(=O)c1CNC(=O)c1c(C)n([C@@H](C)[C@H]2OC[C@H](N3CCC34COC4)CO2)c2ccccc12 (single isomer, unassigned; isomer 2) [151 (isomer 2)] | > 5 nM |  | > 100 nM |  | 
CSc1cc(C)[nH]c(=O)c1CNC(=O)c1c(C)n([C@H](C)C2CCC(NC3(C)CCOC3)CC2)c2ccccc12 (single isomer, unassigned) [149 (isomer 2)] | < 0.5 nM |  | 10 to 100 nM |  | 
COC1CC(N2CC[C@H]([C@@H](C)n3c(C)c(C(=O)NCc4c(SC)cc(C)[nH]c4=O)c4ccccc43)[C@H](F)C2)C1 (stereo partly drawn) [Example 153, 1-((R)-1-((3S,4R)-3-fluoro-1-(3-methoxycyclobutyl)piperidin-4-yl)ethyl)-2-methyl-N-((6-methyl-4-(methylthio)-2-oxo-1,2-dihydropyridin-3-yl)methyl)-1H-indole-3-carboxamide] | < 0.5 nM | < 10 nM |  |  | 
